From US8618287B2, “Derivatives of triazines and uracils, their preparation and their application in human therapeutics” (Pierre Fabre Medicament, priority 2008, dated 2013)

System: not given
Assay: not given
Conditions: not given
`Cn1c(=O)c(N2CCC(Oc3ccccc3C(F)(F)F)CC2)nn(-c2ccsc2)c1=O` [Example 82, 4-methyl-2-thiophen-3-yl-6-[4-(2-trifluoromethyl-phenoxy)-piperidin-1-yl]-2H-[1,2,4]triazine-3,5-dione] showed a melting point of 85 °C.

Target: T1, Human SCD-1 (Homo sapiens, UniProt O00767)
T1 construct: adding 125 μg of microsomal fraction of HepG2 cells; host or cells: HepG2 human hepatocarcinoma cells (microsomal fraction)
T1 sequence (O00767 1-359): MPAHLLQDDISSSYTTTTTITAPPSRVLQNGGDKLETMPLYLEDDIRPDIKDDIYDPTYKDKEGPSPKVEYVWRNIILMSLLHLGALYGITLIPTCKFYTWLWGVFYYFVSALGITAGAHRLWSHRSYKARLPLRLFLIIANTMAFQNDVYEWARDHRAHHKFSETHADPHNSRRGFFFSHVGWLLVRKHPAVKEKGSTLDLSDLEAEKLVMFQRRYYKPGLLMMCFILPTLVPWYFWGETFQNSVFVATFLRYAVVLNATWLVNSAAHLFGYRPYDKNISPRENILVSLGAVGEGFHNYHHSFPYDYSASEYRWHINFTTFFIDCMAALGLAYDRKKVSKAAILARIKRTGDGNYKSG
Assay: Human SCD-1 enzymatic activity from microsomes of HepG2 cells (conversion of stearic acid into oleic acid)
Type: biochemical
Conditions: 10 μM compound; microsomal fraction of HepG2 cells; relative to carrier 0.1% DMSO
Protocol: In vitro: Human SCD-1 enzymatic activity from microsomes of HepG2 cells after treatment with inhibitory compounds (inhibition %).
Human hepatocarcinoma HepG2 cells (ATCC, HB-8065) are grown to confluence and then trypsinized. The cell pellet is taken up in 10 mM Tris buffer (pH 7.4), saccharose (250 mM) DTT (1 mM) and then the cells are lyzed by sonication. The microsomes are obtained after centrifugation at 10,000 g for 20 minutes a 4° C. followed by centrifugation of the supernatant at 100,000 g for 60 minutes a 4° C. The pellet is taken up in 10 mM Tris buffer (pH 7.4) saccharose (250 mM) at 4° C. and the microsomal proteins are assayed and stored at −196° C. (liquid nitrogen).
The enzymatic reaction measures the conversion of stearic acid (a C18:0 fatty acid) into oleic acid (C18:1 fatty acid) by SCD-1. The enzymatic reaction is started by adding 125 μg of microsomal fraction of HepG2 cells to tubes (total reaction volume of 500 μl) containing 62 μM of stearic acid (45 μM of stearic acid and 17 μM of [^14C] stearic acid) in a phosphate buffer at 100 mM (pH 7.16) with 7.2 mM of ATP, 0.54 mM of CoA, 6 mM of MgCl2, 0.8 mM of NADH and the inhibitory compound or the carrier (0.1% DMSO). The tubes are incubated for 20 minutes at 37° C. and the enzymatic reaction is then stopped by adding KOH (12%) and saponification for 30 minutes at 80° C. After acidification (3N HCl), the fatty acids are extracted twice with ethyl ether, evaporated under nitrogen before being taken up with a methanol/dichloromethane (3:1) mixture. The product of the reaction (C18:1) is separated from the substrate of the reaction (C18:0) by HPLC (Perkin Elmer, C18 reverse phase column) coupled to a on-line radioactivity detector (FlowOne). Enzymatic activity is calculated in picomoles of stearic acid converted into oleic acid per minute and per mg of protein. For each inhibitory compound, an inhibition % is determined relatively to the reference enzymatic activity (carrier 0.1% DMSO). Sterculic acid is the reference inhibitory compound (Gomez F. E., Bauman D. E., Ntambi J. M., Fox B. G. Effects of sterculic acid on stearoyl-CoA desaturase in differentiating […] adipocytes. Biochem Biophys Res Commun. 300 316-326 (2003)).
For `CCCCCCCCC1=C(CCCCCCCC(=O)O)C1` [Sterculic acid, reference compound], the “HSCD-1 (HEPG2) % inh. (10 μM)” value was 100%.

Same assay, conditions: 10 μM compound; microsomal fraction of HepG2 cells; relative to carrier 0.1% DMSO; read-out: HSCD-1 (HEPG2) % inh. (10 μM)
For `Cn1c(=O)c(N2CCC(Oc3ccccc3C(F)(F)F)CC2)nn(-c2ccsc2)c1=O` [Example 82, 4-methyl-2-thiophen-3-yl-6-[4-(2-trifluoromethyl-phenoxy)-piperidin-1-yl]-2H-[1,2,4]triazine-3,5-dione], the inhibition at 10 µM was 100%.
`Cn1nc(N2CCC(Oc3ccccc3C(F)(F)F)CC2)c(=O)n(C)c1=O` [Example 11, 2,4-dimethyl-6-[4-(2-trifluoromethyl-phenoxy)-piperidin-1-yl]-2H-[1,2,4]triazine-3,5-dione] showed an inhibition at 10 µM of 92%.
Compound `CCCCCCCn1c(=O)c(N2CCN(C(=O)c3ccccc3C(F)(F)F)CC2)nn(C)c1=O` [Example 1, 4-heptyl-2-methyl-6-[4-(2-trifluoromethyl-benzoyl)-piperazin-1-yl]-2H-[1,2,4]triazine-3,5-dione] has an inhibition at 10 µM of 11%.
In the case of `Cn1c(=O)c(N2CCC(Oc3ccccc3Cl)CC2)nn(CCCC(F)(F)F)c1=O` [Example 25, 6-[4-(2-chloro-phenoxy)-piperidin-1-yl]-4-methyl-2-(4,4,4-trifluoro-butyl)-2H-[1,2,4]triazine-3,5-dione], the inhibition at 10 µM is reported as 70%.
With `CCCCCCCn1c(=O)c(N2CCC(Oc3ccccc3C(F)(F)F)CC2)nn(CCC#N)c1=O` [Example 12, 3-{4-heptyl-3,5-dioxo-6-[4-(2-trifluoromethyl-phenoxy)-piperidin-1-yl]-4,5-dihydro-3H-[1,2,4]triazin-2-yl}-propionitrile] the inhibition at 10 µM was 71%.
`CCCCn1nc(N2CCC(Oc3ccccc3C(F)(F)F)CC2)c(=O)n(C)c1=O` [Example 13, 2-butyl-4-methyl-6-[4-(2-trifluoromethyl-phenoxy)-piperidin-1-yl]-2H-[1,2,4]triazine-3,5-dione] showed an inhibition at 10 µM of 75%.
`Cn1nc(N2CCC(Oc3ccccc3Cl)CC2)c(=O)n(C)c1=O` [Example 27, 6-[4-(2-chloro-phenoxy)-piperidin-1-yl]-2,4-dimethyl-2H-[1,2,4]triazine-3,5-dione] gave an inhibition at 10 µM of 82%.
`CCCCn1nc(N2CCN(C(=O)c3ccccc3C(F)(F)F)CC2)c(=O)n(C)c1=O` [Example 74, 2-butyl-4-methyl-6-[4-(2-trifluoromethyl-benzoyl)-piperazin-1-yl]-2H-[1,2,4]triazine-3,5-dione] showed an inhibition at 10 µM of 60%.
Compound `CNC(=O)Cn1nc(N2CCC(Oc3ccccc3C(F)(F)F)CC2)c(=O)n(C)c1=O` [Example 14, N-methyl-2-{4-methyl-3,5-dioxo-6-[4-(2-trifluoromethyl-phenoxy)-piperidin-1-yl]-4,5-dihydro-3H-[1,2,4]triazin-2-yl}-acetamide] has an inhibition at 10 µM of 74%.
In the case of `Cn1c(=O)c(N2CCN(C(=O)c3ccccc3C(F)(F)F)CC2)nn(CCCC(F)(F)F)c1=O` [Example 3, 4-methyl-2-(4,4,4-trifluoro-butyl)-6-[4-(2-trifluoromethyl-benzoyl)-piperazin-1-yl]-2H-[1,2,4]triazine-3,5-dione], the inhibition at 10 µM is reported as 90%.
Work on `Cn1c(=O)[nH]nc(N2CCN(C(=O)c3ccc(F)cc3C(F)(F)F)CC2)c1=O` [Example 70, 6-[4-(4-fluoro-2-trifluoromethyl-benzoyl)-piperazin-1-yl]-4-methyl-2H-[1,2,4]triazine-3,5-dione] yielded an inhibition at 10 µM of 66%.
Compound `CC(C)CCn1nc(N2CCN(C(=O)c3cc(F)ccc3C(F)(F)F)CC2)c(=O)n(C)c1=O` [Example 48, 6-[4-(5-fluoro-2-trifluoromethyl-benzoyl)-piperazin-1-yl]-4-methyl-2-(3-methyl-butyl)-2H-[1,2,4]triazine-3,5-dione] has an inhibition at 10 µM of 64%.
`CCOCCn1nc(N2CCC(Oc3ccccc3C(F)(F)F)CC2)c(=O)n(C)c1=O` [Example 15, 2-(2-ethoxy-ethyl)-4-methyl-6-[4-(2-trifluoromethyl-phenoxy)-piperidin-1-yl]-2H-[1,2,4]triazine-3,5-dione] gave an inhibition at 10 µM of 74%.
